Assay results taken from PubChem BioAssay (NCI).
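Following 48 hours of exposure in 96-well plates, responses at five concentrations were used to interpolate endpoints linearly. TGI denotes the concentration required for complete inhibition of growth.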

What was measured:
Assay in all cases: inhibition of tumour cell growth, NCI panel, 48 h
[1] = system: KM12 colon
[2] = system: K-562 leukemia
[3] = system: SR leukemia
[4] = system: SK-MEL-2 melanoma
[5] = system: SNB-19 CNS
[6] = system: UACC-257 melanoma
[7] = system: SF-295 CNS
[8] = system: MCF7 breast
[9] = system: SN12C renal
[10] = system: BT-549 breast

| SMILES | TGI [1] | TGI [2] | TGI [3] | TGI [4] | TGI [5] | TGI [6] | TGI [7] | TGI [8] | TGI [9] | TGI [10] |
| --- | --- | --- | --- | --- | --- | --- | --- | --- | --- | --- |
| COC1CCC(CO)OO1 (stereo not drawn) | > 100 µM | > 100 µM | > 100 µM | > 100 µM | > 100 µM | > 100 µM | 73.6 µM |  |  |  |
| O=C1OC2(CCCCC2)C(Oc2ccc(Cl)cc2)=C1F | > 100 µM | > 100 µM | > 100 µM | 61.8 µM | > 100 µM | 66.8 µM | > 100 µM | > 100 µM | > 100 µM |  |
| CNCC(SC)c1ccc(O)c(O)c1 (stereo not drawn) | > 100 µM | 59 µM |  | > 100 µM | > 100 µM | 27.9 µM | > 100 µM | 87.4 µM | 45.8 µM | 31 µM |
| COc1ccc(C2C3=C(COC3=O)Oc3cc4c(cc32)OCO4)cc1OC (stereo not drawn) | > 71.7 µM | > 26.8 µM |  | > 100 µM | > 100 µM | > 100 µM | 24 µM | > 100 µM | > 100 µM |  |
| COC(=O)c1c(CC(=O)OC(C)C)cc2n(c1=O)Cc1c-2nc2ccccc2c1OC |  | > 100 µM | > 100 µM | > 100 µM | > 100 µM | > 100 µM | > 100 µM |  | > 100 µM |  |
| CN1Cc2ccccc2C2(COc3ccccc3C2=O)C1 (stereo not drawn) |  | > 100 µM | 87.8 µM | > 100 µM | > 100 µM | > 100 µM | > 100 µM |  | > 100 µM |  |
| N/C(=N\N=C/c1c(O)cc(O)cc1O)NO | > 100 µM | > 100 µM |  | > 100 µM | > 100 µM | > 100 µM | > 100 µM | > 100 µM | > 100 µM |  |
| CC1(C)Cc2ccccc2C(C)(Cl)C(=O)N1 (stereo not drawn) | > 10 µM | > 10 µM | > 10 µM |  | > 10 µM | > 10 µM | > 10 µM | > 10 µM | > 10 µM | > 10 µM |
| CC(C)=CCNc1ncnc2c1ncn2CCC(=O)O | > 100 µM | > 100 µM | > 100 µM |  | > 100 µM |  | > 100 µM | > 100 µM | > 100 µM | > 100 µM |
| COc1ccc(/C=C/C(=O)c2cc(CN(C)C)c(O)c(CN(C)C)c2)cc1 | 37.4 µM | 70.7 µM | > 100 µM |  | > 100 µM | 38.8 µM | 91.1 µM | > 100 µM | > 100 µM | 72.9 µM |
| NCCCNCCSP(=O)(O)O | > 750 µM | > 750 µM |  | > 700 µM | > 750 µM | > 750 µM | > 750 µM | > 750 µM | > 750 µM |  |
| C#CC(O)/C=C/C(O)CCCC(O)CC#CC(O)C#CCCCCC(O)/C=C/CCCC(=O)CCCCCCCCCCCCCCCC(O)C(O)C#CC(=O)O (stereo not drawn) | > 25 µM | > 25 µM | > 25 µM | > 25 µM | > 25 µM | > 25 µM | > 25 µM | > 25 µM | > 25 µM |  |
